Measured values reported in patent US5482948A, “Pyridyl derivatives and pharmaceutical compositions comprising these compounds” (Dr. Karl Thomae GmbH, priority 1991, dated 1996).

Assays:
thrombocyte aggregation = assay: Antithrombotic activity: collagen-induced aggregation in platelet-rich plasma (Born and Cross); format: cell-based; details: Homo sapiens, 10 min; platelet-rich plasma from healthy volunteers; incubated 10 minutes at 37° C.; 50% change in optical density; read-out: Inhibition of collagen-induced aggregation EC50
Protocol: The thrombocyte aggregation is measured using the method of Born and Cross (J. Physiol. 170, 397 (1964)) in platelet-rich plasma taken from healthy volunteers. To inhibit coagulation, the blood is mixed with 3.14% strength sodium citrate in a ratio by volume of 1:10.
Collagen-induced Aggregation
The pattern of decrease in the optical density of the platelet suspension is photometrically measured and recorded after the addition of the aggregation-triggering substance. The rate of aggregation is concluded from the angle of inclination of the density curve. The point on the curve where there is greatest light transmittance is used to calculate the "optical density".
The quantity of collagen used is as little as possible but sufficient to produce an irreversible reaction curve. Standard commercial collagen produced by Hormonchemie of Munich is used. Before the addition of the collagen the plasma is incubated for 10 minutes with the substance at 37° C.
From the measurements obtained an EC50 is determined by plotting a graph, and indicates a 50% change in the "optical density" in terms of the inhibition of aggregation.

Thromboxane = target: T1, Thromboxane (Homo sapiens, UniProt P21731); assay: Thromboxane-antagonistic activity (displacement of 3H-labelled ligand on human platelets); format: binding; details: human platelet suspension, 60 minutes at ambient temperature
T1 construct: endogenous in cells; host or cells: human platelets (platelet-rich plasma passed through Sepharose 2B)
T1 sequence (P21731 1-343): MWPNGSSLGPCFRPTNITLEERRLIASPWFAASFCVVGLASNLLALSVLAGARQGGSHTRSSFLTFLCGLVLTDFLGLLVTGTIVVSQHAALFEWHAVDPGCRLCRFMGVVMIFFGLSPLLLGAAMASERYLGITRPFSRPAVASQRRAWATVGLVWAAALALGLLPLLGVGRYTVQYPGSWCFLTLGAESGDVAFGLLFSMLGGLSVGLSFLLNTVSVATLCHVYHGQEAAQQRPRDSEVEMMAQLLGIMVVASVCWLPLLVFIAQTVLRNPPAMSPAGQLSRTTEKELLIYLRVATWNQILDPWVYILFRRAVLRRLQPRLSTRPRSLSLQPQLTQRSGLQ
Protocol: Thromboxane-antagonistic Activity
Venous human blood is anti-coagulated with 13 mM Na3 citrate and centrifuged for 10 minutes at 170×g. The supernatant platelet-rich plasma is passed through a Sepharose 2B column in order to remove the plasma proteins. Aliquots of the platelet suspension obtained are incubated with the test substance, the ligand (^3 H-labelled) and a marker (^14 C-labelled) for 60 minutes at ambient temperature and then centrifuged for 20 seconds at 10,000×g. The supernatant is removed and the pellet is dissolved in NaOH. The ^3 H activity in the supernatant corresponds to the free ligand, ^14 C gives the concentration of the marker. ^3 H in the pellet corresponds to the bound ligand whilst ^14 C is used to correct for the ligand in the extracellular space. After the process has been repeated, the displacement curve is determined from the binding values for different concentrations of the test substance and the IC50 is determined.

thromboxane synthetase = target: T2, thromboxane synthetase (Homo sapiens, UniProt P24557); assay: Inhibitory effect on thromboxane synthetase (TXB2 formation in human platelet suspension); format: cell-based; details: 10 minutes at ambient temperature, then 14C-labelled arachidonic acid 10 minutes, read-out: Inhibition of thromboxane synthetase IC50
T2 construct: endogenous in cells; host or cells: human platelets (platelet-rich plasma passed through Sepharose 2B)
T2 sequence (P24557 1-533): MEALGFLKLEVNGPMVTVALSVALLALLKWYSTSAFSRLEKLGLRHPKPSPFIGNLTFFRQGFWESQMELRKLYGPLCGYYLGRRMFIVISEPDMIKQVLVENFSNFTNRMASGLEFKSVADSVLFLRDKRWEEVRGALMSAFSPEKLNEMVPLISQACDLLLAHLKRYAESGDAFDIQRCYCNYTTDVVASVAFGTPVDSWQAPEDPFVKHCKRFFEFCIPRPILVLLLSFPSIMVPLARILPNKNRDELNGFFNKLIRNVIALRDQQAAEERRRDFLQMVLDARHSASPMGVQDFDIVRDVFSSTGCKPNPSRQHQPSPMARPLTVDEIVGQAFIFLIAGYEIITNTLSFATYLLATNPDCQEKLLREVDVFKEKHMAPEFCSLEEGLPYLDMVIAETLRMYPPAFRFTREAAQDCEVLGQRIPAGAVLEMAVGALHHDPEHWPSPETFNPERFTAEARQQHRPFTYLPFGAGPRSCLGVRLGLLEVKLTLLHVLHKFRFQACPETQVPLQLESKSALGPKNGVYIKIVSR
Protocol: Determining the Inhibitory Effect on Thromboxane Synthetase
Venous human blood is anti-coagulated with 13 mM Na3 citrate and centrifuged for 10 minutes at 170×g. The supernatant platelet-rich plasma is passed through a Sepharose 2B column in order to remove the plasma proteins. Aliquots of the platelet suspension obtained are incubated with the test substance or with a solvent as control for 10 minutes at ambient temperature and after the addition of ^14 C-labelled arachidonic acid incubation is continued for a further 10 minutes. After this has been stopped with 50 μl of citric acid, extraction is carried out 3 times with 500 μl of ethyl acetate and the combined extracts are distilled off with nitrogen. The residue is taken up in ethyl acetate, placed on TLC film and separated with chloro-form:methanol:glacial acetic acid:water (90:8:1:0.8, v/v/v/v). The dried TLC films are placed on X-ray film for 3 days, the autoradiograms were developed and the active zones were marked on the film using the autoradiograms. After cutting out, the activity is measured in a scintillation counter and the inhibition of the formation of TXB2 is calculated. The IC50 is determined by linear interpolation.

IC50 (Thromboxane)	IC50 (thromboxane synthetase)	Structure (SMILES)	EC50 (thrombocyte aggregation)
600 nM	2700 nM	CC(C)CNC(=NS(N)(=O)=O)Nc1cccc(/C(=C\CCCC(=O)O)c2cccnc2)c1 [W, 5E-6-(3-(2-amidosulphonyl-3-(2-methylpropyl)guanidino)phenyl)-6-(3-pyridyl)hex-5-enoic acid]	12 µM
380 nM	5 nM	CC(C)CNC(Nc1cccc(/C(=C\CCCC(=O)O)c2cccnc2)c1)=C(C#N)C(N)=O [X, 5E-6-(3-(2-carbamoyl-2-cyano-1-(2-methylpropylamino)-ethyleneamino)phenyl)-6-(3-pyridyl)hex-5-enoic acid]	31 µM
21 nM	250 nM	N#CN=C(Nc1cccc(/C(=C\CCCn2cnnn2)c2cccnc2)c1)NC1CCCC1 [Y, 4E-1-(5-(3-(2-cyano-3-cyclopentyl-guanidino)phenyl)-5-(3-pyridyl)-pent-4-enyl)tetrazole]	1.2 µM
